In PubChem BioAssay (NCI) one finds GI50 and TGI data, which are given here for nine compounds.

Several values for one entry are separate records, joined by “and”; a condition that tells them apart may be missing. Equal entries are not always repeated.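 Where inhibition never reached the appropriate level, the endpoint shown equals the highest concentration tested. Otherwise, values were interpolated linearly from a five-concentration, 48-hour dose response in 96-well plates. The concentration for 50% growth inhibition is given as GI50. Definition used: TGI = concentration required for complete inhibition of growth.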

Some test systems named below: IGROV1 ovarian; COLO 205 colon; NCI-H522 lung; SN12C renal; CAKI-1 renal; BT-549 breast; SNB-75 CNS; MALME-3M melanoma; MCF7 breast; U251 CNS.
What all share (test): NCI tumour cell line growth inhibition, 48 h

Take `C=CCOC(=O)Nc1cccn([C@H](CC(C)C)C(=O)NCCC(C)C)c1=O`: the GI50 was 60.4 µM in the assay with IGROV1 ovarian; more than 100 µM in the assay with COLO 205 colon; 63.8 µM in the assay on NCI-H522 lung; more than 100 µM with SN12C renal; 29 µM in the assay with CAKI-1 renal; more than 100 µM with BT-549 breast. Further, the GI50 in the assay on SNB-75 CNS is 4910 nM; with MALME-3M melanoma, more than 100 µM; with MCF7 breast, 99.4 µM; in the assay on U251 CNS it was 92.3 µM. In addition, the TGI in the assay on IGROV1 ovarian, with COLO 205 colon, with NCI-H522 lung, in the assay on SN12C renal, in the assay on CAKI-1 renal and in the assay on BT-549 breast was more than 100 µM each time. In addition, the TGI with SNB-75 CNS, with MALME-3M melanoma, in the assay with MCF7 breast and in the assay with U251 CNS was more than 100 µM in each case.

On to `Cc1ccsc1-c1ccc2c(c1)COC2(CCCN(C)C)c1ccc(F)cc1` (stereo not given), for which the GI50 with IGROV1 ovarian is 1.87 µM; with COLO 205 colon, 1.92 µM; with NCI-H522 lung it was 3.02 µM; in the assay with SN12C renal, 3.59 µM; in the assay with CAKI-1 renal it was 2.19 µM; with BT-549 breast it was 4.97 µM. Also, the GI50 with SNB-75 CNS is 1720 nM; with MALME-3M melanoma it was 1.39 µM; with MCF7 breast, 1.74 µM; in the assay on U251 CNS, 1.95 µM. The TGI with IGROV1 ovarian is 5.86 µM; in the assay with COLO 205 colon it was 4.19 µM; in the assay on NCI-H522 lung it was 12.4 µM; in the assay with SN12C renal, 15.5 µM; with CAKI-1 renal, 6.05 µM; in the assay on BT-549 breast, 18.6 µM. The TGI with SNB-75 CNS came to 6.82 µM; with MALME-3M melanoma it was 2.8 µM; with MCF7 breast, 3.67 µM; with U251 CNS, 4.24 µM.

Consider `Cc1cccc(Cl)c1NC(=O)c1cnc(Nc2cc(N3CCOCC3)cc(S(C)(=O)=O)c2)s1`, for which the GI50 in the assay on IGROV1 ovarian was 0.0541 µM; with COLO 205 colon it was 0.572 µM; in the assay on NCI-H522 lung it was 0.264 µM; with SN12C renal it was 0.455 µM; in the assay with CAKI-1 renal, 0.0975 µM; in the assay with BT-549 breast it was 9.75 µM. The GI50 in the assay on SNB-75 CNS is 20.2 nM; with MALME-3M melanoma, more than 4.16 µM; with MCF7 breast, more than 8.99 µM; in the assay on U251 CNS, more than 5.57 µM. For the same compound, the TGI in the assay with IGROV1 ovarian is 0.521 µM; in the assay with COLO 205 colon it was more than 10 µM; with NCI-H522 lung, more than 10 µM; in the assay on SN12C renal it was more than 10 µM; with CAKI-1 renal, 0.742 µM; in the assay with BT-549 breast, more than 10 µM. Moreover, the TGI was 0.196 µM in the assay on SNB-75 CNS, more than 10 µM with MALME-3M melanoma, more than 10 µM in the assay on MCF7 breast and more than 10 µM with U251 CNS.

Turning to `COc1ccc(-c2cn(-c3cc(OC)c(OC)c(OC)c3)c(=O)[nH]2)cc1OC`, the GI50 in the assay on IGROV1 ovarian, in the assay with COLO 205 colon, in the assay on NCI-H522 lung, with SN12C renal, in the assay with CAKI-1 renal and with BT-549 breast was more than 100 µM each time. The GI50 was 71700 nM with SNB-75 CNS, more than 100 µM in the assay with MALME-3M melanoma, more than 100 µM in the assay with MCF7 breast and more than 100 µM in the assay on U251 CNS. Also, the TGI in the assay with IGROV1 ovarian, in the assay on COLO 205 colon, with NCI-H522 lung, with SN12C renal, in the assay with CAKI-1 renal and in the assay on BT-549 breast was more than 100 µM in each case. Besides, the TGI in the assay with SNB-75 CNS, in the assay on MALME-3M melanoma, in the assay on MCF7 breast and in the assay on U251 CNS was more than 100 µM each time.

Turning to `C=CC(=O)N1CC[C@H](n2nc(C#Cc3cc(OC)cc(OC)c3)c3c(N)ncnc32)C1`, the GI50 in the assay on IGROV1 ovarian is 2.88 µM; with COLO 205 colon, 15.8 µM; in the assay with NCI-H522 lung, 7.56 µM; with SN12C renal it was 4.43 µM; with CAKI-1 renal it was 7.06 µM; in the assay with BT-549 breast, 1.05 µM. For the same compound, the GI50 in the assay on SNB-75 CNS is 343 nM; in the assay on MALME-3M melanoma it was 15.6 µM; with MCF7 breast, 3.78 µM; in the assay with U251 CNS, 6.38 µM. The TGI with IGROV1 ovarian is more than 100 µM; in the assay on COLO 205 colon, more than 100 µM; in the assay with NCI-H522 lung, 37.9 µM; in the assay on SN12C renal, more than 100 µM; in the assay on CAKI-1 renal it was more than 100 µM; with BT-549 breast, 9.56 µM. The TGI was 6.91 µM with SNB-75 CNS, more than 100 µM in the assay on MALME-3M melanoma, more than 100 µM with MCF7 breast and more than 100 µM in the assay on U251 CNS.

On to `Nc1ncn([C@H]2C[C@H](OP(=O)(O)OC[C@H]3O[C@@H](n4cnc5c(=O)[nH]c(N)nc54)C[C@@H]3O)[C@@H](CO)O2)c(=O)n1`, for which the GI50 in the assay with IGROV1 ovarian is more than 100 µM; with COLO 205 colon, 41.4 µM; in the assay on NCI-H522 lung, more than 100 µM; with SN12C renal, 51.4 µM; in the assay with CAKI-1 renal it was more than 100 µM; with BT-549 breast, more than 100 µM. Moreover, the GI50 in the assay on SNB-75 CNS is more than 100000 nM; with MALME-3M melanoma it was more than 100 µM; in the assay on MCF7 breast, 51.9 µM; in the assay with U251 CNS, more than 100 µM. The TGI in the assay with IGROV1 ovarian, with COLO 205 colon, in the assay on NCI-H522 lung, in the assay on SN12C renal, in the assay on CAKI-1 renal and in the assay with BT-549 breast was more than 100 µM each time. In addition, the TGI in the assay on SNB-75 CNS, in the assay on MALME-3M melanoma, with MCF7 breast and in the assay on U251 CNS was more than 100 µM each time.

With `COC(=O)CNc1nc(N(C)O)nc(N(C)O)n1`, the GI50 with IGROV1 ovarian was 7.38 µM; in the assay on COLO 205 colon, 3.99 µM; in the assay on NCI-H522 lung, 3.73 µM; in the assay with SN12C renal it was 9.17 µM; in the assay with CAKI-1 renal, 13.1 µM; in the assay with BT-549 breast, 13.8 µM. Also, the GI50 in the assay with SNB-75 CNS is 4200 nM; in the assay with MALME-3M melanoma, 19.3 µM; with MCF7 breast it was 3.07 µM; in the assay with U251 CNS it was 2.26 µM. Further, the TGI in the assay on IGROV1 ovarian was 39.4 µM; in the assay on COLO 205 colon, more than 100 µM; with NCI-H522 lung it was more than 100 µM; in the assay on SN12C renal it was more than 100 µM; with CAKI-1 renal, more than 100 µM; in the assay on BT-549 breast, more than 100 µM. Besides, the TGI is more than 100 µM in the assay on SNB-75 CNS, 77.4 µM with MALME-3M melanoma, more than 100 µM in the assay on MCF7 breast and more than 100 µM in the assay on U251 CNS.

As for `CC(C)Cc1ccc(C(C)C(=O)NCc2ccc(Cn3c(=O)sn(CCCI)c3=O)cc2)cc1` (stereo not given), the GI50 was 0.453 µM in the assay on IGROV1 ovarian; 0.271 µM in the assay with COLO 205 colon; 0.309 µM with NCI-H522 lung; 0.646 µM in the assay with SN12C renal; 0.404 µM in the assay with CAKI-1 renal; 0.571 µM in the assay with BT-549 breast. For the same compound, the GI50 in the assay with SNB-75 CNS was 558 nM; with MALME-3M melanoma, 1.41 µM; in the assay with MCF7 breast it was 0.397 µM; with U251 CNS it was 1.43 µM. For the same compound, the TGI in the assay on IGROV1 ovarian is 1.38 µM; in the assay with COLO 205 colon, 1.14 µM; in the assay on NCI-H522 lung, 1.04 µM; with SN12C renal, 1.97 µM; with CAKI-1 renal it was 1.61 µM; with BT-549 breast, 1.81 µM. In addition, the TGI in the assay with SNB-75 CNS is 1.96 µM; in the assay with MALME-3M melanoma it was 2.8 µM; with MCF7 breast it was 2.03 µM; in the assay on U251 CNS, 2.89 µM.

In the case of `CC1Cc2ccccc2N1C(=O)Cc1nc(N2CCOCC2)cc(=O)[nH]1` (stereo not given), the GI50 is 3.09 µM and 9.02 µM in the assay on IGROV1 ovarian; 17.4 µM and 53.8 µM in the assay on COLO 205 colon; 25.6 µM and 39.7 µM with NCI-H522 lung; 9.39 µM and 13.9 µM with SN12C renal; 10.5 µM and 28 µM in the assay with CAKI-1 renal; 1.37 µM and 5.58 µM in the assay with BT-549 breast. Besides, the GI50 was 188 nM and 1160 nM with SNB-75 CNS; 3.18 µM and 7.81 µM with MALME-3M melanoma; 2.3 µM and 4.77 µM with MCF7 breast; 21.8 µM and 45.9 µM in the assay with U251 CNS. The TGI with IGROV1 ovarian was 22.8 µM and 52.6 µM; with COLO 205 colon it was 46.2 µM and > 100 µM; in the assay with NCI-H522 lung, more than 100 µM; in the assay on SN12C renal, more than 100 µM; in the assay on CAKI-1 renal it was more than 100 µM; in the assay with BT-549 breast, 57.2 µM and > 94.7 µM. The TGI is > 100 µM and 23.3 µM with SNB-75 CNS; 61.9 µM and > 79.1 µM in the assay with MALME-3M melanoma; more than 100 µM in the assay on MCF7 breast; more than 100 µM in the assay with U251 CNS.
